Test results from publication PMC3810934 (Emerging Infectious Diseases, 2013).
Read-outs that look alike come from different tables or passages of the source.

Legend:
[1] = target: T1, Oseltamivir-resistant A/Texas/23/2012 neuraminidase (H275Y) (Influenza A virus (H1N1pdm09), UniProt R4SI91, H275Y); type: biochemical, Pandemic influenza A(H1N1) 2009 virus; settings: pH 6.5
[2] = target: T2, Oseltamivir-resistant A/Bethesda/956/2006 neuraminidase (K at 292) (Influenza A virus (H3N2), UniProt F1KL32, R292K); type: biochemical; settings: pH 5.1
[3] = target: T2, Oseltamivir-resistant A/Bethesda/956/2006 neuraminidase (K at 292); type: biochemical; settings: pH 6.5
[4] = target: T1, Oseltamivir-resistant A/Texas/23/2012 neuraminidase (H275Y); type: biochemical, Pandemic influenza A(H1N1) 2009 virus; settings: pH 5.1

Question: With `CCC(CC)[C@H](NC(C)=O)[C@@H]1[C@H](O)[C@@H](C(=O)O)C[C@H]1N=C(N)N` [Peramivir, peramivir] as the molecule, how does the “Fold change in IC50 compared with drug-sensitive subtype-specific control” value (shortened to “Fold change in IC50”) [1] read?
Answer: 15.81 (264) -fold

Question: What about the IC50 [1] of the same molecule?
Answer: 15.8 nM

Question: What about the “Fold change in IC50” value [2] of the same molecule?
Answer: 8.58 (86) fold

Question: And the IC50 [2]?
Answer: 8.58 nM

Question: And the “Fold change in IC50” value [3]?
Answer: 16.27 (203) -fold

Question: What about the IC50 [3] of the same molecule?
Answer: 16.3 nM

Question: And the “Fold change in IC50” value [4]?
Answer: 30.17 (431) fold

Question: And the IC50 [4]?
Answer: 30.2 nM
